Measurements: patent US11918582B2 (RAPT Therapeutics, Inc., priority 2021, dated 2024)
Counter-ions that a name gives are not always drawn.

Molecular target: T1, human HPK1 (MAP4K1) (Homo sapiens, UniProt Q92918)
T1 construct: Recombinant human HPK1 kinase domain was obtained from ThermoFisher (Cat. #PV6357) and SignalChem (Cat. #M23-11G); purchased ThermoFisher; SignalChem PV6357; M23-11G
T1 sequence (Q92918 17-274 limits assumed): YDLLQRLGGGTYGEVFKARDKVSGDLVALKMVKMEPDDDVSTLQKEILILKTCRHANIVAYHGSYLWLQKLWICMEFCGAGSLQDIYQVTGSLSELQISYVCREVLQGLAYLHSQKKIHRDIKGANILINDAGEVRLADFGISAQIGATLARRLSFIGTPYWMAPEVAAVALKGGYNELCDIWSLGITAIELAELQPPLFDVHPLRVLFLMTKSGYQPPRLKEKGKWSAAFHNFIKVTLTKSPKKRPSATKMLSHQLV
Assay: Biochemical assay for activity against HPK1 (ADP-Glo, MBP substrate)
Conditions: recombinant human HPK1 kinase domain, 1 nM enzyme, ADP-Glo luminescence
Outline: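 IC50s come from ADP-Glo luminescence after a 2 h room-temperature reaction phosphorylating MBP in the presence of ATP. Compound was first preincubated 15 min with 1 nM HPK1 kinase domain, human recombinant. Buffer: 50 mM HEPES pH 7.5, 150 mM NaCl, 3 mM TCEP, 10 mM MgCl2, 0.005% Tween-20, 0.01% BSA.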

Compound	IC50 [µM]
COc1cc2c(cc1Nc1ncc3cnn(C[C@@H]4[C@H](C)CCN4C(C)=O)c3n1)CN(C)CC2 [Example 189, 1-((2S,3R)-2-((6-((6-methoxy-2-methyl-1,2,3,4-tetrahydroisoquinolin-7-yl)amino)-1H-pyrazolo[3,4-d]pyrimidin-1-yl)methyl)-3-methylpyrrolidin-1-yl)ethan-1-one]	< 0.1
COc1cc2c(cc1Nc1ncc3cnn(C[C@@H]4CCCN4S(N)(=O)=O)c3n1)CN(C)CC2 [Example 190, (S)-2-((6-((6-methoxy-2-methyl-1,2,3,4-tetrahydroisoquinolin-7-yl)amino)-1H-pyrazolo[3,4-d]pyrimidin-1-yl)methyl)pyrrolidine-1-sulfonamide hydrochloride]	< 0.1
COc1cc2c(cc1Nc1ncc3cnn(C[C@@H]4[C@@H](C)[C@H](F)CN4C(C)=O)c3n1)CN(C)CC2 [Example 191, 1-((2S,3R,4S)-4-fluoro-2-((6-((6-methoxy-2-methyl-1,2,3,4-tetrahydroisoquinolin-7-yl)amino)-1H-pyrazolo[3,4-d]pyrimidin-1-yl)methyl)-3-methylpyrrolidin-1-yl)ethan-1-one]	< 0.1
COc1cc2c(cc1Nc1ncc3cnn(C4CCC(F)(F)CC4)c3n1)CN(C)CC2 [Example 192, N-[1-(4,4-difluorocyclohexyl)pyrazolo[3,4-d]pyrimidin-6-yl]-6-methoxy-2-methyl-3,4-dihydro-1H-isoquinolin-7-amine Hydrochloride]	< 0.1
COc1cc2c(cc1Nc1ncc3cnn(C[C@@H]4CCCN4C(C)=O)c3n1)CN(CCO)CC2 [Example 194, (S)-1-(2-((6-((2-(2-hydroxyethyl)-6-methoxy-1,2,3,4-tetrahydroisoquinolin-7-yl)amino)-1H-pyrazolo[3,4-d]pyrimidin-1-yl)methyl)pyrrolidin-1-yl)ethan-1-one]	< 0.1
COc1cc2c(cc1Nc1ncc3cnn(C[C@@H]4CCCN4C(C)=O)c3n1)CN(C[C@@H](C)O)CC2 [Example 195, 1-((S)-2-((6-((2-((R)-2-hydroxypropyl)-6-methoxy-1,2,3,4-tetrahydroisoquinolin-7-yl)amino)-1H-pyrazolo[3,4-d]pyrimidin-1-yl)methyl)pyrrolidin-1-yl)ethan-1-one]	< 0.1
COc1cc2c(cc1Nc1ncc3cnn(C[C@@H]4CCCN4C(C)=O)c3n1)CN(C(C)C)CC2 [Example 196, (S)-1-(2-((6-((2-isopropyl-6-methoxy-1,2,3,4-tetrahydroisoquinolin-7-yl)amino)-1H-pyrazolo[3,4-d]pyrimidin-1-yl)methyl)pyrrolidin-1-yl)ethan-1-one hydrochloride]	< 0.1
COCCN1CCc2cc(OC)c(Nc3ncc4cnn(C[C@@H]5CCCN5C(C)=O)c4n3)cc2C1 [Example 197, (S)-1-(2-((6-((6-methoxy-2-(2-methoxyethyl)-1,2,3,4-tetrahydroisoquinolin-7-yl)amino)-1H-pyrazolo[3,4-d]pyrimidin-1-yl)methyl)pyrrolidin-1-yl)ethan-1-one Hydrochloride]	< 0.1
COc1nc2c(cc1Nc1ncc3cnn(C[C@@H]4CCCN4C(C)=O)c3n1)CN(C)CC2 [Example 198]	< 0.1
COc1cc2c(cc1Nc1ncc3cnn(C[C@H]4CC[C@H](O)CC4)c3n1)CN(C)CC2 [Example 199, (trans)-4-((6-((6-methoxy-2-methyl-1,2,3,4-tetrahydroisoquinolin-7-yl)amino)-1H-pyrazolo[3,4-d]pyrimidin-1-yl)methyl)cyclohexan-1-ol hydrochloride]	< 0.1
COc1cc2c(cc1Nc1ncc3cnn(CC4(C)CC4)c3n1)CN(C)CC2 [Example 203, 6-methoxy-2-methyl-N-(1-((1-methylcyclopropyl)methyl)-1H-pyrazolo[3,4-d]pyrimidin-6-yl)-1,2,3,4-tetrahydroisoquinolin-7-amine]	< 0.1
COc1cc2c(cc1Nc1ncc3cnn(CC4(F)CC4)c3n1)CN(C)CC2 [Example 204, N-(1-((1-fluorocyclopropyl)methyl)-1H-pyrazolo[3,4-d]pyrimidin-6-yl)-6-methoxy-2-methyl-1,2,3,4-tetrahydroisoquinolin-7-amine]	< 0.1
COc1cc2c(cc1Nc1ncc3cnn(CC4CC4(F)F)c3n1)CN(C)CC2 (stereo not drawn) [Example 206, N-(1-((2,2-difluorocyclopropyl)methyl)-1H-pyrazolo[3,4-d]pyrimidin-6-yl)-6-methoxy-2-methyl-1,2,3,4-tetrahydroisoquinolin-7-amine]	< 0.1
COc1cc2c(cc1Nc1ncc3cnn(C[C@@H]4CCCN4C(C)=O)c3n1)C(C(F)(F)F)N(C)CC2 (stereo partly drawn) [Example 208, 1-((2S)-2-((6-((6-methoxy-2-methyl-1-(trifluoromethyl)-1,2,3,4-tetrahydroisoquinolin-7-yl)amino)-1H-pyrazolo[3,4-d]pyrimidin-1-yl)methyl)pyrrolidin-1-yl)ethan-1-one]	< 0.1
COc1cc2c(cc1Nc1ncc3cnn([C@@H]4CC[C@H]5CN(C(C)=O)[C@H]54)c3n1)CN(C)CC2 [Example 209, 1-((1S,4R,5R)-4-(6-((6-methoxy-2-methyl-1,2,3,4-tetrahydroisoquinolin-7-yl)amino)-1H-pyrazolo[3,4-d]pyrimidin-1-yl)-6-azabicyclo[3.2.0]heptan-6-yl)ethan-1-one]	< 0.1
COc1cc2c(cc1Nc1ncc3cnn([C@H]4CCN(C(C)=O)C[C@H]4C)c3n1)CN(C)CC2 [Example 210, 1-((3R,4S)-4-(6-((6-methoxy-2-methyl-1,2,3,4-tetrahydroisoquinolin-7-yl)amino)-1H-pyrazolo[3,4-d]pyrimidin-1-yl)-3-methylpiperidin-1-yl)ethan-1-one]	< 0.1
COc1cc2c(cc1Nc1ncc3cnn(C[C@H]4CCCCN4C(C)=O)c3n1)CN(C)CC2 [Example 211, 1-[(2R)-2-[[6-[(6-methoxy-2-methyl-3,4-dihydro-1H-isoquinolin-7-yl)amino]pyrazolo[3,4-d]pyrimidin-1-yl]methyl]-1-piperidyl]ethenone hydrochloride]	0.1 to 0.25
COc1nc2c(cc1Nc1ncc3cnn(C[C@@H]4C[C@H](F)CN4C(C)=O)c3n1)CN(C)CC2 [Example 212, 1-[(2S,4S)-4-fluoro-2-[[6-[(2-methoxy-6-methyl-7,8-dihydro-5H-1,6-naphthyridin-3-yl)amino]pyrazolo[3,4-d]pyrimidin-1-yl]methyl]pyrrolidin-1-yl]ethenone]	< 0.1
COc1cc2c(cc1Nc1ncc3cnn(C[C@@H]4[C@@H](F)CCN4C(C)=O)c3n1)CN(C)CC2 [Example 213, 1-[(2R,3S)-3-fluoro-2-[[6-[(6-methoxy-2-methyl-3,4-dihydro-1H-isoquinolin-7-yl)amino]pyrazolo[3,4-d]pyrimidin-1-yl]methyl]pyrrolidin-1-yl]ethanone]	< 0.1
COc1cc2c(cc1Nc1ncc3cnn(C[C@@H]4C[C@H]5C[C@H]5N4C(C)=O)c3n1)CN(C)CC2 [Example 215, 1-[(1R,3S,5R)-3-[[6-[(6-methoxy-2-methyl-3,4-dihydro-1H-isoquinolin-7-yl)amino]pyrazolo[3,4-d]pyrimidin-1-yl]methyl]-2-azabicyclo[3.1.0]hexan-2-yl]ethanone]	< 0.1
COc1cc2c(cc1Nc1ncc3cnn(C[C@@H]4C[C@@H]5C[C@@H]5N4C(C)=O)c3n1)CN(C)CC2 [Example 216, 1-[(1S,3S,5S)-3-[[6-[(6-methoxy-2-methyl-3,4-dihydro-1H-isoquinolin-7-yl)amino]pyrazolo[3,4-d]pyrimidin-1-yl]methyl]-2-azabicyclo[3.1.0]hexan-2-yl]ethanone]	< 0.1
COc1cc2c(cc1Nc1ncc3cnn(C[C@@H]4CCCN4C(N)=O)c3n1)CN(C)CC2 [Example 217, (2S)-2-[[6-[(6-methoxy-2-methyl-3,4-dihydro-1H-isoquinolin-7-yl)amino]pyrazolo[3,4-d]pyrimidin-1-yl]methyl]pyrrolidine-1-carboxamide]	< 0.1
COc1cc2c(cc1Nc1ncc3cnn(CC4CCCNC4=O)c3n1)CN(C)CC2 (stereo not drawn) [Example 218, 3-[[6-[(6-methoxy-2-methyl-3,4-dihydro-1H-isoquinolin-7-yl)amino]pyrazolo[3,4-d]pyrimidin-1-yl]methyl]piperidin-2-one]	< 0.1
COc1cc2c(cc1Nc1ncc3cnn(Cc4cc[nH]c(=O)c4)c3n1)CN(C)CC2 [Example 219, 4-[[6-[(6-methoxy-2-methyl-3,4-dihydro-1H-isoquinolin-7-yl)amino]pyrazolo[3,4-d]pyrimidin-1-yl]methyl]-1H-pyridin-2-one]	< 0.1
COc1cc2c(cc1Nc1ncc3cnn(C[C@@H]4[C@H]5C[C@H]5CN4C(C)=O)c3n1)CN(C)CC2 [Example 220, 1-[(1S,2S,5R)-2-[[6-[(6-methoxy-2-methyl-3,4-dihydro-1H-isoquinolin-7-yl)amino]pyrazolo[3,4-d]pyrimidin-1-yl]methyl]-3-azabicyclo[3.1.0]hexan-3-yl]ethanone]	< 0.1
COc1cc2c(cc1Nc1ncc3cnn(C[C@@H]4C[C@H](O)CN4C(C)=O)c3n1)CN(C)CC2 [Example 221, 1-((2S,4S)-4-hydroxy-2-((6-((6-methoxy-2-methyl-1,2,3,4-tetrahydroisoquinolin-7-yl)amino)-1H-pyrazolo[3,4-d]pyrimidin-1-yl)methyl)pyrrolidin-1-yl)ethan-1-one]	< 0.1
COc1cc2c(cc1Nc1ncc3cnn(C[C@@H]4C[C@H](F)CN4C(C)=O)c3n1)CN(CCO)CC2 [Example 222, 1-((2S,4S)-4-fluoro-2-((6-((2-(2-hydroxyethyl)-6-methoxy-1,2,3,4-tetrahydroisoquinolin-7-yl)amino)-1H-pyrazolo[3,4-d]pyrimidin-1-yl)methyl)pyrrolidin-1-yl)ethan-1-one]	< 0.1
